Assay type in all cases: functional
Assay [1] is described as follows: Growth inhibition of human Hs 578T cells at 10 uM after 48 hrs by sulforhodamine B assay. The following applies: values are per cent of control. (In SRB staining, fixed cells bind dye roughly in proportion to their protein.)
The nature of assay [2]: Growth inhibition of human MOLT4 cells at 10 uM after 48 hrs by sulforhodamine B assay. Conditions: MOLT-4, 48 h, values are per cent of control.
Assay [3] in a line: Growth inhibition of human HL-60(TB) cells at 10 uM after 48 hrs by sulforhodamine B assay. The following applies: HL-60, 48 h, values are per cent of control.
Assay [4] in a line: Growth inhibition of human PC3 cells at 10 uM after 48 hrs by sulforhodamine B assay. The following applies: PC-3, 48 h, values are per cent of control.
The subject of a further assay is NCI-H23. Briefly: Growth inhibition of human NCI-H23 cells at 10 uM after 48 hrs by sulforhodamine B assay. The following applies: NCI-H23, 48 h, values are per cent of control.
Assay [5] is described as follows: Growth inhibition of human OVCAR3 cells at 10 uM after 48 hrs by sulforhodamine B assay. Conditions: OVCAR-3, 48 h, values are per cent of control.
Assay [6] in a line: Growth inhibition of human UACC257 cells at 10 uM after 48 hrs by sulforhodamine B assay. The following applies: UACC-257, 48 h, values are per cent of control.
The test system of a further assay is NCI-H522. In words: Growth inhibition of human NCI-H522 cells at 10 uM after 48 hrs by sulforhodamine B assay. Conditions: NCI-H522, 48 h, values are per cent of control.
The next assay deals with CCRF-CEM. Briefly: Growth inhibition of human CCRF-CEM cells at 10 uM after 48 hrs by sulforhodamine B assay. The following applies: values are per cent of control.
For another assay, the system named is SR. In words: Growth inhibition of human SR cells at 10 uM after 48 hrs by sulforhodamine B assay. The following applies: values are per cent of control.
Assay [7] can be described thus: Growth inhibition of human HCC2998 cells at 10 uM after 48 hrs by sulforhodamine B assay. Conditions: HCC 2998, 48 h, values are per cent of control.
Assay [8] in a line: Growth inhibition of human RPMI8226 cells at 10 uM after 48 hrs by sulforhodamine B assay. Conditions: RPMI-8226, 48 h, values are per cent of control.
The next assay relates to MCF7. Briefly: Growth inhibition of human MCF7 cells at 10 uM after 48 hrs by sulforhodamine B assay. The following applies: MCF7, 48 h, values are per cent of control.
Assay [9] can be described thus: Growth inhibition of human IGROV1 cells at 10 uM after 48 hrs by sulforhodamine B assay. Conditions: IGROV-1, 48 h, values are per cent of control.
A further assay deals with T47D. In words: Growth inhibition of human T47D cells at 10 uM after 48 hrs by sulforhodamine B assay. The following applies: values are per cent of control.
A short description of assay [10]: Growth inhibition of human HCT15 cells at 10 uM after 48 hrs by sulforhodamine B assay. The following applies: HCT-15, 48 h, values are per cent of control.
The subject of the next assay is Malme-3M. Briefly: Growth inhibition of human MALME-3M cells at 10 uM after 48 hrs by sulforhodamine B assay. Conditions: values are per cent of control.
The nature of assay [11]: Growth inhibition of human UACC62 cells at 10 uM after 48 hrs by sulforhodamine B assay. The following applies: UACC-62, 48 h, values are per cent of control.
Assay [12] in a line: Growth inhibition of human HOP92 cells at 10 uM after 48 hrs by sulforhodamine B assay. The following applies: HOP-92, 48 h, values are per cent of control.

Take `N#C/C(=C\c1c(Cl)cccc1Cl)c1ccc2c(c1)OCO2`: the growth, % of control at 10 µM in assay [1] stood at 101%; in assay [2], 61.2%; in assay [3], 75%; in [4], 94.3%; with NCI-H23, 93.7%; in [5], 97.7%. In addition, the growth, % of control at 10 µM in [6] turned out to be 99.8%; in the assay with NCI-H522 it was 65.4%; with CCRF-CEM, 86.7%; in the assay on SR it was 77%; in [7], 89.9%; in assay [8], 84.4%. Also, the growth, % of control at 10 µM was found to be 93.7% in the assay on MCF7; 85.6% in [9]; 83.8% in the assay on T47D; 92.6% in [10]; 56.1% in the assay with Malme-3M; 86.4% in assay [11].
For the molecule `N#C/C(=C\c1ccsc1)c1ccc2c(c1)OCO2`, the growth, % of control at 10 µM in assay [1] was 119%; in [2], 79.7%; in assay [3] it was 83.5%; in assay [4] it was 110%; in the assay on NCI-H23 it was 106%; in assay [5], 103%. For the same molecule, the growth, % of control at 10 µM in [6] amounted to 110%; in the assay with NCI-H522 it was 95.4%; in the assay on CCRF-CEM it was 104%; in the assay on SR it was 86.5%; in [7], 106%; in [8], 104%. For the same molecule, the growth, % of control at 10 µM came to 87.1% with MCF7; 96.4% in assay [9]; 90.7% in the assay with T47D; 107% in assay [10]; 114% with Malme-3M; 106% in assay [11].
`COc1ccc(/C(C#N)=C/c2ccc3c(c2)OCO3)cc1`: the growth, % of control at 10 µM in assay [1] is 92.4%; in assay [2], 70.4%; in [3] it was 66.6%; in assay [4] it was 81%; in the assay on NCI-H23, 96.1%; in assay [5] it was 88.7%. Moreover, the growth, % of control at 10 µM in the assay on NCI-H522 is 90.5%; in the assay with CCRF-CEM it was 72.1%; in the assay with SR it was 39.3%; in assay [7], 80%; in assay [8], 64.7%; in the assay with MCF7, 60.8%. In addition, the growth, % of control at 10 µM in assay [9] amounted to 84.6%; in the assay on T47D, 70%; in assay [10], 59%; with Malme-3M it was 79.9%; in [12], 93%; in [11], 69.2%.
With `N#C/C(=C\c1cccnc1Cl)c1ccc2c(c1)OCO2`, the growth, % of control at 10 µM in assay [1] turned out to be 129%; in assay [3], 83.8%; in assay [4], 101%; with NCI-H23, 97.2%; in [5] it was 115%; in [6] it was 112%. Also, the growth, % of control at 10 µM came out at 71.7% in the assay on NCI-H522; 93.7% in the assay with CCRF-CEM; 92.8% with SR; 107% in assay [7]; 89.3% in assay [8]; 112% in the assay with MCF7. For the same molecule, the growth, % of control at 10 µM in assay [9] is 113%; with T47D, 93.4%; in [10], 98.8%; in the assay with Malme-3M, 107%; in [11], 85.7%.
As to `COc1ccc(/C=C(\C#N)c2ccc3c(c2)OCO3)c(Cl)c1OC`, the growth, % of control at 10 µM in assay [1] came to 81.9%; in the assay on NCI-H23 it was 85%; in [5], 100%; in [6] it was 106%; in the assay on NCI-H522, 66%; with SR, 51.1%. Further, the growth, % of control at 10 µM in [7] was determined as 76.9%; with MCF7, 71.6%; in [9], 77.1%; in the assay on T47D it was 65.1%; in assay [10], 63.9%; in the assay with Malme-3M it was 79.1%. In assay [11], this molecule returned a growth, % of control at 10 µM of 56.6%.
Turning to `COc1cc(/C=C(\C#N)c2ccc3c(c2)OCO3)cc(OC)c1OC`, the growth, % of control at 10 µM in assay [1] is 100%; in assay [2] it was 87.2%; in assay [3], 88.6%; in assay [4] it was 88.7%; in the assay on NCI-H23, 94.5%; in assay [5], 108%. The growth, % of control at 10 µM in [6] was 97.5%; in the assay on NCI-H522, 85.8%; with CCRF-CEM, 96.5%; in the assay on SR, 83.5%; in [7], 91.3%; in [8], 88.5%. The growth, % of control at 10 µM came out at 95.3% in [9]; 70.7% in the assay with T47D; 85.7% in assay [10]; 98.9% in the assay with Malme-3M; 87.6% in assay [11].
As for `N#C/C(=C\c1ccc(Cl)c(Cl)c1)c1ccc2c(c1)OCO2`, the growth, % of control at 10 µM in assay [1] was determined as 81.3%; in [2], 72.2%; in [3], 83.1%; in [4], 91.5%; in the assay on NCI-H23, 88%; in assay [5] it was 97.7%. In addition, the growth, % of control at 10 µM in assay [6] is 86.3%; with NCI-H522, 82.7%; in the assay with CCRF-CEM, 91.9%; in the assay on SR, 77.7%; in [7], 92.1%; in [8], 80.1%. Further, the growth, % of control at 10 µM with MCF7 was 79.9%; in assay [9], 67.2%; in the assay on T47D, 74.7%; in [10], 88.7%; in assay [11], 108%.
Turning to `COc1cc(/C=C(\C#N)c2ccc3c(c2)OCO3)cc(OC)c1`, the growth, % of control at 10 µM in assay [1] was 115%; in assay [2], 67.2%; in assay [3], 64.5%; in assay [4], 97.3%; in the assay with NCI-H23, 96.6%; in [5], 103%. Also, the growth, % of control at 10 µM in assay [6] is 97%; with NCI-H522 it was 87.9%; in the assay with CCRF-CEM, 83.4%; in the assay with SR, 82%; in assay [7], 102%; in assay [8], 89.4%. Also, the growth, % of control at 10 µM with MCF7 amounted to 85.5%; in assay [9], 87.1%; in the assay with T47D, 75.6%; in [10] it was 102%; with Malme-3M, 95.7%; in assay [11], 86.4%.
As to `N#C/C(=C\c1ccc2ccccc2n1)c1ccc2c(c1)OCO2`, the growth, % of control at 10 µM worked out at 34.8% in [1]; 78.5% in assay [2]; 87.1% in assay [3]; 77.5% in [4]; 58.8% in the assay with NCI-H23; 63% in [5]. Further, the growth, % of control at 10 µM with NCI-H522 is 58.8%; in the assay with CCRF-CEM, 89.7%; with SR it was 60.5%; in assay [7] it was 95.1%; in [8], 84.9%; in the assay with MCF7, 84.6%. Further, the growth, % of control at 10 µM came out at 55.1% in [9]; 69.4% with T47D; 79.7% in [10]; 68.3% with Malme-3M; 90.2% in assay [12]; 86.8% in assay [11].

The values above are taken from ChEMBL document CHEMBL3792365, “Dioxol and dihydrodioxin analogs of 2- and 3-phenylacetonitriles as potent anti-cancer agents with nanomolar activity against a variety of human cancer cells” (2016).
